Data as given in patent publication US20240218022A1, “ANTI-VISTA MACROCYCLIC PEPTIDES AND COMPOSITIONS” (BRISTOL-MYERS SQUIBB COMPANY, priority 2022, published 2024).
Like-named read-outs stand apart in the source and are kept apart here. Blank lines part the entries; values can stand above or below the molecule they belong to. Starred links: 1 amine or outer side, 2 acyl side, 3 side chain; linkers in the order of their positions; H or OH if unused. Positions of bridges follow the written chain, without caps; N, C: chain ends. Non-standard residues stand in square brackets, D forms with d. Residues, ends and D or L forms follow the SMILES beside them. Phe(4-COOH) = N[C@@H](Cc1ccc(C(=O)O)cc1)C(=O)O; Trp(1-Me) = Cn1cc(C[C@H](N)C(=O)O)c2ccccc21; Phe(2,4-F2) = N[C@@H](Cc1ccc(F)cc1F)C(=O)O; NMeW = CN[C@@H](Cc1c[nH]c2ccccc12)C(=O)O; Phe(3-Me) = Cc1cccc(C[C@H](N)C(=O)O)c1; γGlu = O=C(O)[C@H](CCC(=O)[*:2])N[*:1]; 1Nal = N[C@@H](Cc1cccc2ccccc12)C(=O)O; 2Nal = N[C@@H](Cc1ccc2ccccc2c1)C(=O)O; βAsp = O=C(O)[C@H](CC(=O)[*:2])N[*:1]; Phe(2-Me) = Cc1ccccc1C[C@H](N)C(=O)O; Cit = NC(=O)NCCC[C@H](N)C(=O)O; NMeL = CN[C@@H](CC(C)C)C(=O)O; Ahp(2) = CCCCC[C@H](N)C(=O)O; NMeNle = CCCC[C@H](NC)C(=O)O; Tle = CC(C)(C)[C@H](N)C(=O)O; NMeS = CN[C@@H](CO)C(=O)O; NHexGly = CCCCCCNCC(=O)O; Nle = CCCC[C@H](N)C(=O)O; Orn = NCCC[C@H](N)C(=O)O; Aun = NCCCCCCCCCCC(=O)O; AEEA = NCCOCCOCC(=O)O

Biological target: T1, mouse VISTA (mVISTA) (Mus musculus, UniProt Q9D659)
T1 construct: expressed in transfected cells; host or cells: Human embryonic kidney 293T cells
T1 sequence (Q9D659 33-308): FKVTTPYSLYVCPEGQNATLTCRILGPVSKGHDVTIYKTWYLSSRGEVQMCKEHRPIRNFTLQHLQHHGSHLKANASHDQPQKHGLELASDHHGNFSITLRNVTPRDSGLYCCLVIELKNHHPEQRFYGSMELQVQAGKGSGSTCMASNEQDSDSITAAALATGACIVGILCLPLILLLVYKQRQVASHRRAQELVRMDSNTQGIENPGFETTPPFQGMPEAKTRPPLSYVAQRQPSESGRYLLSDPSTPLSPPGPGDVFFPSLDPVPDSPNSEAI
Assay: Cell-Based Binding High-Content Assay For mVISTA (HC CBA mVISTA)
In short: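 This high-content binding assay uses HEK293T cells expressing murine VISTA, measuring displacement of 2 nM biotinylated peptide by fluorescent streptavidin imaging. IC50 values come from four-parameter logistic fitting.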

[1] = the 20th table, scaffold drawing 23, read-out: HC CBA mVISTA IC50
[2] = cell-based binding high-content assay, mVISTA, the 16th table, read-out: HC CBA mVISTA IC50

SMILES: CCCCCCN1CC(=O)N[C@@H](Cc2ccc(O)cc2)C(=O)N[C@@H](CCCC)C(=O)N[C@@H](CC(N)=O)C(=O)N[C@@H](CCCNC(=N)N)C(=O)N[C@@H](CC(C)C)C(=O)N[C@@H](CCCCC)C(=O)N2CCC[C@H]2C(=O)N[C@@H](C(C)C)C(=O)N[C@@H](CC(=O)O)C(=O)N[C@H](C(=O)NCC(=O)O)CSCC(=O)N[C@@H](Cc2ccccc2)C(=O)N[C@@H](Cc2cn(C)c3ccccc23)C(=O)N[C@@H](CC(=O)O)C1=O [compound 1455] ({CH2CO}-F[Trp(1-Me)]D[NHexGly]Y[Nle]NRL[Ahp(2)]PVDCG-OH; thioether N-14)
IC50 [1]: 3.5 nM

SMILES: CCCCCCN1CC(=O)N[C@@H](Cc2ccc(O)cc2)C(=O)N[C@@H](CCCC)C(=O)N[C@@H](CC(N)=O)C(=O)N[C@@H](CCCNC(=N)N)C(=O)N[C@@H](CC(C)C)C(=O)N[C@@H](CCCCC)C(=O)N2CCC[C@H]2C(=O)N[C@@H](C(C)C)C(=O)N[C@@H](CO)C(=O)N[C@H](C(=O)NCC(=O)O)CSCC(=O)N[C@@H](Cc2cccc3ccccc23)C(=O)N[C@@H](Cc2ccc(O)cc2)C(=O)N[C@@H](CC(=O)O)C1=O [compound 1452] ({CH2CO}-[1Nal]YD[NHexGly]Y[Nle]NRL[Ahp(2)]PVSCG-OH; thioether N-14)
IC50 [1]: 19.9 nM

SMILES: CCCCCCN1CC(=O)N[C@@H](Cc2ccc(O)cc2)C(=O)N[C@@H](CCCC)C(=O)N[C@@H](CC(N)=O)C(=O)N[C@@H](CCCNC(N)=O)C(=O)N[C@@H](CC(C)C)C(=O)N[C@@H](CCCCC)C(=O)N2CCC[C@H]2C(=O)N[C@@H](C(C)C)C(=O)N[C@@H](CC(=O)O)C(=O)N[C@H](C(=O)NCC(=O)O)CSCC(=O)N[C@@H](Cc2ccccc2)C(=O)N[C@@H](Cc2c[nH]c3ccccc23)C(=O)N[C@@H](CC(=O)O)C1=O [Example 1363] ({CH2CO}-FWD[NHexGly]Y[Nle]N[Cit]L[Ahp(2)]PVDCG-OH; thioether N-14)
IC50 (read-out: HC CBA mVISTA IC50): 4 nM

SMILES: CCCCCCN1CC(=O)N[C@@H](Cc2ccc(O)cc2)C(=O)N[C@@H](CC(C)C)C(=O)N[C@@H](CC(N)=O)C(=O)N[C@@H](CCCNC(=N)N)C(=O)N(C)[C@@H](CCCC)C(=O)N[C@@H](CCCCC)C(=O)N2CCC[C@H]2C(=O)N[C@@H](C(C)(C)C)C(=O)N[C@@H](CO)C(=O)N[C@H](C(=O)NCC(N)=O)CSCC(=O)N[C@@H](Cc2ccccc2C)C(=O)N[C@@H](Cc2ccc(O)cc2)C(=O)N[C@@H](CC(=O)O)C1=O [compound 1205] ({CH2CO}-[Phe(2-Me)]YD[NHexGly]YLNR[NMeNle][Ahp(2)]P[Tle]SCG-NH2; thioether N-14)
IC50 (read-out: HC CBA mVISTA IC50): 16.4 nM

SMILES: CCCCCCN1CC(=O)N[C@@H](Cc2ccc(O)cc2)C(=O)N[C@@H](CCCC)C(=O)N[C@@H](CC(N)=O)C(=O)N[C@@H](CCCNC(=N)N)C(=O)N(C)[C@@H](Cc2c[nH]c3ccccc23)C(=O)N[C@@H](CCCCC)C(=O)N2CCC[C@H]2C(=O)N[C@@H](C(C)C)C(=O)N[C@@H](CC(=O)O)C(=O)N[C@H](C(=O)NCC(=O)O)CSCC(=O)N[C@@H](Cc2ccc3ccccc3c2)C(=O)N[C@@H](Cc2c[nH]c3ccccc23)C(=O)N[C@@H](CC(=O)O)C1=O [compound 1261] ({CH2CO}-[2Nal]WD[NHexGly]Y[Nle]NR[NMeW][Ahp(2)]PVDCG-OH; thioether N-14)
IC50 (cell-based binding high-content assay, mVISTA, the 15th table, read-out: HC CBA mVISTA IC50): 11.7 nM

SMILES: CCCCCCN1CC(=O)N[C@@H](Cc2ccc(O)cc2)C(=O)N[C@@H](CCCC)C(=O)N[C@@H](CC(=O)O)C(=O)N[C@@H](CCCN)C(=O)N[C@@H](CC(C)C)C(=O)N[C@@H](CCCCC)C(=O)N2CCC[C@H]2C(=O)N[C@@H](C(C)C)C(=O)N[C@@H](CC(=O)O)C(=O)N[C@H](C(=O)N[C@@H](CC(=O)O)C(N)=O)CSCC(=O)N[C@@H](Cc2cccc(C)c2)C(=O)N[C@@H](Cc2ccc(O)cc2)C(=O)N[C@@H](CC(=O)O)C1=O [compound 1430] ({CH2CO}-[Phe(3-Me)]YD[NHexGly]Y[Nle]D[Orn]L[Ahp(2)]PVDCD-NH2; thioether N-14)
IC50 (the 19th table, scaffold drawing 22, read-out: HC CBA mVISTA IC50): 6.2 nM

The remaining lines, values ahead:

IC50 (read-out: HC CBA mVISTA IC50): 12.9 nM
SMILES: CCCCCCN1CC(=O)N[C@@H](Cc2ccc(O)cc2)C(=O)N[C@@H](CCCCC)C(=O)N[C@@H](CC(N)=O)C(=O)N[C@@H](CCCNC(=N)N)C(=O)N(C)[C@@H](CCCC)C(=O)N[C@@H](CCCCC)C(=O)N2CCC[C@H]2C(=O)N[C@@H](C(C)C)C(=O)N[C@@H](CC(=O)O)C(=O)N[C@H](C(=O)NCC(=O)O)CSCC(=O)N[C@@H](Cc2ccc(F)cc2F)C(=O)N[C@@H](Cc2ccc(F)cc2F)C(=O)N[C@@H](CC(=O)O)C1=O [compound 1216] ({CH2CO}-[Phe(2,4-F2)][Phe(2,4-F2)]D[NHexGly]Y[Ahp(2)]NR[NMeNle][Ahp(2)]PVDCG-OH; thioether N-14)

IC50 (cell-based binding high-content assay, mVISTA, read-out: HC CBA miPr ISTA IC50): 35 nM
SMILES: CCCCCCN1CC(=O)N[C@@H](Cc2ccc(O)cc2)C(=O)N[C@@H](CC(C)C)C(=O)N[C@@H](CC(N)=O)C(=O)N[C@@H](CCCNC(=N)N)C(=O)N(C)[C@@H](CO)C(=O)N[C@@H](CCCCC)C(=O)N2CCC[C@H]2C(=O)N[C@@H](C(C)(C)C)C(=O)N[C@@H](CC(=O)O)C(=O)N[C@H](C(=O)N[C@@H](CC(=O)NCCOCCOCC(=O)N[C@@H](CC(=O)O)C(=O)NCCOCCOCC(=O)NCCCCCCCCCCC(=O)O)C(=O)O)CSCC(=O)N[C@@H](Cc2ccc(C(=O)O)cc2)C(=O)N[C@@H](Cc2ccc(O)cc2)C(=O)N[C@@H](CC(=O)O)C1=O [compound 2048] ({CH2CO}-[Phe(4-COOH)]YD[NHexGly]YLNR[NMeS][Ahp(2)]P[Tle]DC[βAsp][AEEA]D[AEEA][Aun]-OH; thioether N-14)

IC50 (cell-based binding high-content assay, mVISTA, read-out: HC CBA miPrISTA IC50): 40 nM
SMILES: CCCCCCN1CC(=O)N[C@@H](Cc2ccc(O)cc2)C(=O)N[C@@H](CC(C)C)C(=O)N[C@@H](CC(N)=O)C(=O)N[C@@H](CCCN)C(=O)N(C)[C@@H](CCCC)C(=O)N[C@@H](CCCCC)C(=O)N2CCC[C@H]2C(=O)N[C@@H](C(C)(C)C)C(=O)N[C@@H](CC(=O)O)C(=O)N[C@H](C(=O)N[C@@H](CC(=O)NCCOCCOCC(=O)N[C@@H](CC(=O)O)C(=O)NCCOCCOCC(=O)NCCCCCCCCCCC(=O)O)C(=O)O)CSCC(=O)N[C@@H](Cc2ccccc2)C(=O)N[C@@H](Cc2cccc(C)c2)C(=O)N[C@@H](CC(=O)O)C1=O [compound 2074] ({CH2CO}-F[Phe(3-Me)]D[NHexGly]YLN[Orn][NMeNle][Ahp(2)]P[Tle]DC[βAsp][AEEA]D[AEEA][Aun]-OH; thioether N-14)

IC50 (read-out: HC CBA mVISTA IC50): 18.7 nM
SMILES: CCCCCCN1CC(=O)N[C@@H](Cc2ccc(O)cc2)C(=O)N[C@@H](CCCC)C(=O)N[C@@H](CC(N)=O)C(=O)N[C@@H](CCCNC(=N)N)C(=O)N(C)[C@@H](CC(C)C)C(=O)N[C@@H](CCCCC)C(=O)N2CCC[C@H]2C(=O)N[C@@H](C(C)C)C(=O)N[C@@H](CC(=O)O)C(=O)N[C@H](C(=O)N[C@@H](CO)C(=O)O)CSCC(=O)N[C@@H](Cc2ccccc2)C(=O)N[C@@H](Cc2c[nH]c3ccccc23)C(=O)N[C@@H](CC(=O)O)C1=O [Example 1370] ({CH2CO}-FWD[NHexGly]Y[Nle]NR[NMeL][Ahp(2)]PVDCS-OH; thioether N-14)

IC50 [2]: 8.3 nM
SMILES: CCCCCCN1CC(=O)N[C@@H](Cc2ccc(O)cc2)C(=O)N[C@@H](CCCC)C(=O)N[C@@H](CC(N)=O)C(=O)N[C@@H](CCCNC(=N)N)C(=O)N[C@@H](CC(C)C)C(=O)N[C@@H](CCCCC)C(=O)N2CCC[C@H]2C(=O)N[C@@H](C(C)C)C(=O)N[C@@H](CC(=O)O)C(=O)N[C@H](C(=O)N[C@@H](CC(N)=O)C(N)=O)CSCC(=O)N[C@@H](Cc2ccc3ccccc3c2)C(=O)N[C@@H](Cc2ccc(O)cc2)C(=O)N[C@@H](CC(=O)O)C1=O [Ex 1311] ({CH2CO}-[2Nal]YD[NHexGly]Y[Nle]NRL[Ahp(2)]PVDCN-NH2; thioether N-14)

IC50 [2]: 23.2 nM
SMILES: CCCCCCN1CC(=O)N[C@@H](Cc2ccc(O)cc2)C(=O)N[C@@H](C(C)C)C(=O)NCC(=O)N[C@@H](CCCNC(=N)N)C(=O)N[C@@H](CC(C)C)C(=O)N[C@@H](CCCCC)C(=O)N2CCC[C@H]2C(=O)N[C@@H](C(C)C)C(=O)N[C@@H](CO)C(=O)N[C@H](C(=O)NCC(=O)O)CSCC(=O)N[C@@H](Cc2ccc3ccccc3c2)C(=O)N[C@@H](Cc2ccc(O)cc2)C(=O)N[C@@H](CC(=O)O)C1=O [Ex 1277] ({CH2CO}-[2Nal]YD[NHexGly]YVGRL[Ahp(2)]PVSCG-OH; thioether N-14)

IC50 (read-out: HC CBA mVISTA IC50): 34.9 nM
SMILES: CCCCCCN1CC(=O)N[C@@H](Cc2ccc(O)cc2)C(=O)N[C@@H](CC(C)C)C(=O)N[C@@H](CC(N)=O)C(=O)N[C@@H](CCCN)C(=O)N(C)[C@@H](CCCC)C(=O)N[C@@H](CCCCC)C(=O)N2CCC[C@H]2C(=O)N[C@@H](C(C)(C)C)C(=O)N[C@@H](C(C)C)C(=O)N[C@H](C(=O)NCCOCCOCC(=O)N[C@@H](CCC(=O)NCCOCCOCC(=O)NCCCCCCCCCCC(=O)O)C(=O)O)CSCC(=O)N[C@@H](Cc2ccccc2)C(=O)N[C@@H](Cc2c[nH]c3ccccc23)C(=O)N[C@@H](CC(=O)O)C1=O [compound 2282] ({CH2CO}-FWD[NHexGly]YLN[Orn][NMeNle][Ahp(2)]P[Tle]VC[AEEA][γGlu][AEEA][Aun]-OH; thioether N-14)
